Columns and labels:
Assay type in all cases: cell-based, rat
[1] = tested on: HSC-T6 cells; experiment: Glutathione (GSH) and GSSG assays; conditions: 48 h
Experimental: FIG. 3. […] (c) DBZIM and (d) TDBZIM both suppressed cellular GSSG (the oxidation product of GSH). (e) DBZIM and (f) TDBZIM both enhanced the GSH/GSSG ratio. HSC-T6 cells were incubated with compounds of various concentrations for 48 h, and assayed for the total GSH and GSSG amounts. The GSH/GSSG ratio was calculated as (GSH−GSSG)/GSSG. The GSH and GSSG amounts were normalized against the total protein. Note that DBZIM was dissolved in DMSO, and TDBZIM was dissolved in H2O. The data were presented as mean and SEM, N=6, *^aP<0.05, *^bP<0.01, *^cP<0.005, and *^dP<0.0005, when compared to the vehicle control.
Total cellular GSH and GSSG levels were determined by using assay kits from Cayman Chemical (Ann Arbor, Mich., USA) following the manufacturer's instructions. Briefly, HSC-T6 cells treated with DBZIM, TDBZIM, NAC, or EGCG were scalped and homogenized in phosphate buffered saline (PBS) by sonication at 60% frequency for 30 s, and the supernatant was collected after centrifugation at 16,000×g for 10 min at 4° C. Protein content of the samples was determined by bicinchonicic acid (BCA) assay.
For GSH assays, the protein sample was deproteinated by metaphosphoric acid (Aldrich, Catalog No. 23927-5), and the pH was adjusted by triethanolamine (Aldrich, Catalog No. T5830-0) according to the manual. The sample was ready for assaying total GSH including both the reduced and oxidized forms. Quantification of GSSG, exclusive of GSH, was performed by first derivatizing GSH with 2-vinylpyridine and assaying separately. Colorimetric signal was recorded at 405 nm with a Tecan Safire II plate reader. The levels of GSH or GSSG were determined as nmol/μg protein.

[2] = tested on: CAT; experiment: Catalase (CAT) activity assay in treated cells; conditions: for attenuation of CAT activity: 48 h
Experimental: FIG. 4. […] Enzyme activity was normalized against total protein. DBZIM was dissolved in DMSO, and TDBZIM was dissolved in H2O. The data were presented as mean and SEM, N=6, *^aP<0.05, *^bP<0.01, *^cP<0.005, and *^dP<0.0005, when compared to the vehicle control.
Activity levels of three anti-oxidant enzymes, GPx, CAT and SOD, were determined using assay kits from Cayman Chemical. To assay GPx and CAT activities, protein samples were harvested in ice-cold PBS containing 1 mM of EDTA. […] Protein content was determined by BCA assay.
CAT activity was determined based on reaction of the enzyme with methanol in the presence of H2O2. The formaldehyde produced was measured spectrophotometrically at 540 nm using Purpald as the chromogen. CAT activity was expressed as nmol/min/mg protein.

[3] = tested on: GFAP; experiment: Real-time RT-PCR of GFAP mRNA in HSC T6 cells
Experimental: (§1) FIG. 6. (a) DBZIM and (b) TDBZIM suppressed the mRNA expression of HSC activation markers (GFAP and SMAA) and fibrotic endpoints (col1a1 and fibronectin) in a dosage-dependent manner. […] The ΔΔCt method was used for relative quantification with vehicle control sample being the calibrator. The data were presented as mean and SEM, N=6, *^aP<0.05, *^bP<0.01, *^cP<0.005, and *^dP<0.0005, when compared to the vehicle control. FIG. 7. DBZIM (100 μM) and TDBZIM (100 μM) suppressed (a) GFAP, (b) SMAA, (c) col1a1 and (d) fibronectin mRNA expression in a time-dependent manner. HSC T6 cells were treated with DBZIM and TDBZIM, and assayed after 8, 24 and 48 h. […] FIG. 14. […] (50 μM), […] (50 μM), […] (10 μM) and DBZBIM (100 μM) were dissolved in DMSO with a final DMSO concentration of 0.2% (v/v). DPIM (2 mM), EGCG (25 μM) and DBZIM (100 μM) were dissolved in H2O. β-actin was used as the normalization gene; its expression was constant under the experimental conditions. Relative quantification was normalized against the respective vehicle control. The data were presented as mean and SEM, N=6, *^aP<0.05, *^cP<0.005, and *^dP<0.0005, when compared to the vehicle control. Total RNA was isolated using NucleoSpin RNAII isolation kit ([…], Germany), and quantified by ND-100 spectrophotometer (Nanodrop Technologies, DE, USA). The details of real-time RT-PCR were reported elsewhere (Zhang et al. 2006). Briefly, it was a two-step real-time RT-PCR using Taqman chemistry. Total RNA was first reverse transcribed to cDNA, and real-time PCR was run and detected in ABI 7500 Fast Real-Time PCR System (Applied Biosystems, CA, USA). Primers and probes for rat GFAP, SMAA, collagen Ia1, fibronectin, TGF-β1, TGF-β receptor I (TGFβ RI) and IL-6 were ordered from Taqman's assay-on-demand database. Rat β-actin was used as normalization gene, and its expression level was constant (CT difference was <±0.5) throughout the experimental settings in this study. Relative quantification of target mRNA was calculated using comparative threshold cycle method (ΔΔCT) as described in User Bulletin #2 (ABI Prism 7700 Sequence Detection System). Relative quantification was given by 2^-ΔΔCT to express the up-regulation or down regulation of the target gene under the treatments compared to the control.

[4] = tested on: fibronectin; experiment: Real-time RT-PCR of fibronectin mRNA in HSC T6 cells; conditions: for suppression of fibronectin mRNA: DPIM 2 mM, TMPHIM 50 μM, DBZIM 100 μM
Experimental: as §1

[5] = 300 μM, without statistical significance

Compound | depletion of GSSG ([1]; 10 μM) [%] | enhancement of GSH/GSSG ratio ([1]; 10 μM) [%] | depletion of GSSG ([1]; 50 μM) [%] | enhancement of GSH/GSSG ratio ([1]; 50 μM) [%] | enhancement of GSH/GSSG ratio ([1]; 100 μM) [%] | attenuation of CAT activity ([2]; 10 μM) [%] | attenuation of CAT activity ([2]; 50 μM) [%] | attenuation of CAT activity ([2]; 100 μM) [%] | decrease of GFAP mRNA ([3]; 10 μM, 48 h) [%] | decrease of GFAP mRNA ([3]; 100 μM, 8 h) [%] | decrease of GFAP mRNA ([3]; 100 μM, 24 h) [%] | decrease of GFAP mRNA ([3]; 100 μM, 48 h) [%] | decrease of fibronectin mRNA ([4]; 1 μM, 48 h) [%] | decrease of fibronectin mRNA ([4]; 100 μM, 8 h) [%] | decrease of fibronectin mRNA ([4]; 100 μM, 24 h) [%] | decrease of fibronectin mRNA ([4]; 100 μM, 48 h) [%] | suppression of fibronectin mRNA ([4]; 48 h) [%] | other results
1,3,5-tris(4-methyl-imidazolium)-linked cyclophane.3Br [TDBZIM] | 12 | 14 | 35 | 65 | 106 | 25 | 31 | 20 | 20 | 30 | 36 | 60 | 32 | 25 | 29 | 43 |  | depletion of GSSG ([1]; 100 μM): 50%; effect on total cellular GSH level ([1]; 10-100 μM): did not alter; decrease of GFAP mRNA ([3]; 1 μM, 48 h): 32%; decrease of fibronectin mRNA ([4]; 10 μM, 48 h): 28%
[Br-].c1ccc(Cn2cc[n+](Cc3ccccc3)c2)cc1 [DBZIM, 1,3-bisbenzylimidazolium bromide] | 13 | 8 | 23 | 15 | 23 | 19 | 16 | 12 | 18 | 28 | 40 | 56 | 19 | 15 | 17 | 25 | 26 | attenuation of total GSH level ([1]; 10 μM): 7%; attenuation of total GSH level ([1]; 50 μM): 12%; attenuation of total GSH level ([1]; 100 μM): 20%; GSH/GSSG ratio relative to control group ([1]; 300 μM): 7.4 fold; depletion of GSSG ([1]; 300 μM): 85%; enhancement of total GSH level [1, 5]: 8%; depletion of GSSG ([1]; 1001 μM): 35%; attenuation of CAT activity [2, 5]: 8%; decrease of GFAP mRNA ([3]; 300 μM, 48 h): 86%; decrease of fibronectin mRNA ([4]; 300 μM, 48 h): 40%
CC(C)n1cc[n+](C(C)C)c1.F[B-](F)(F)F [DPIM, 1,3-diisopropylimidazolium tetrafluoroborate] |  |  |  |  |  |  |  |  |  |  |  |  |  |  |  |  | 48 | suppression of GFAP mRNA ([3]; 48 h, DPIM 2 mM, AMIM 50 μM, TMPHIM 50 μM, DBZBIM 100 μM): 78%
(−)-Epigallocatechin gallate [EGCG, reference compound] |  |  |  |  |  |  |  |  |  |  |  |  |  |  |  |  |  | reduction of GSSG (references) ([1]; EGCG 25 μM, NAC 5 mM): 42%; increase in GSH/GSSG ratio (references) ([1]; NAC 5 mM, EGCG 25 μM): 2 fold; induction of total GSH (references) ([1]; NAC 5 mM, EGCG 25 μM): 19%; suppression of CAT activity (references) ([2]; EGCG, NAC (FIG. 4c)): 13%; inhibition on HSC activation and fibrosis (GFAP, SMAA, fibronectin, col1a1 mRNA) ([3]; EGCG 25 μM, 48 h): did not show significant inhibition
